From patent US20090297645A1, “Fibroblast Activator and Method of Activating Fibroblast, Collagen Synthesis Promoter and Method of Promoting Collagen Synthesis, and Skin Antiaging Agent and Method of Preventing Aging of Skin” (priority 2005, published 2009)

Legend:
Normal human fibroblasts [1] = test: Test of collagen synthesis promoting function of fibroblasts (type I collagen ELISA, BCA protein); assay type: cell-based; conditions: positive control, concentration not given, 48 hours
Description: The collagen synthesis of fibroblasts was evaluated by quantifying the amount of secreted type I collagen in culture supernatant by ELISA.
Normal human fibroblasts were seeded onto a 96-well microplate at a cell density of 3.0×10^4 cells/well. After culturing for 24 hours in DMEM containing 0.5 percent FBS, the medium was replaced with DMEM containing 0.5 percent FBS containing a freeze-dried product of grape sap in the concentration shown in Table 2. A PC in the form of magnesium ascorbyl phosphate (VCPMg) was employed. After 48 hours, the culture supernatant was collected and the amount of type I collagen was quantified by ELISA.
Culture supernatant and calibration curve-use type I collagen were placed in a 96-well plate and coated overnight at 4° C. […] Twenty minutes later, a microplate reader was employed to measure the absorbance at 405 nm. The quantity of collagen in the culture supernatant was calculated from a calibration curve measured with the same plate.
At the same time, the quantity of cell protein was quantified using BCA protein assay reagent (PIERCE). The quantity of collagen in the culture supernatant was divided by the quantity of protein to calculate the quantity of collagen per unit of protein, which was adopted as the quantity of collagen synthesized by the cells. […] The p value was determined to be significant when p<0.05. […]

Normal human fibroblasts [2] = test: Test of fibroblast activation function (MTT formazan); assay type: cell-based; conditions: positive control, DMEM containing 5 percent FBS, 48 hours, control = 100, n = 5
Description: 3-(4,5-Dimethyl-2-thiazolyl)-2,5-diphenyl-2H-tetrazolium […] (MTT) cleaves NADPH or NADH produced in energy metabolic processes in mitochondria within cells to produce formazan. Thus, the quantity of formazan produced was adopted as an indicator of cell activation function.
Normal human fibroblasts were seeded onto a 96-well microplate at a cell density of 3.0×10^4 cells/well. After culturing for 24 hours in Dulbecco's modified eagle medium (DMEM) containing 1 percent fetal bovine serum (FBS), the medium was replaced with DMEM containing 1 percent FBS containing a freeze-dried product of grape sap in the concentration shown in Table 1. A positive control (PC) in the form of DMEM containing 5 percent FBS was employed. […]
The cells were washed, the formazan produced in the cells was dissolved in 2-propanol, and a microplate reader was employed to measure the absorbance at 550 nm and 650 nm. The difference between the two was calculated to evaluate the quantity of formazan generated within the cells. Cell activation function was denoted by an activation index (%) with the absorbance (ABS.) of cultivated cells to which no sample was added (control) being denoted as 100. […] The p value was determined to be significant when p<0.05.

O=C1O[C@H]([C@@H](O)CO)C([O-])=C1OP(=O)([O-])[O-].O=C1O[C@H]([C@@H](O)CO)C([O-])=C1OP(=O)([O-])[O-].[Mg+2].[Mg+2].[Mg+2] [PC, magnesium ascorbyl phosphate]
Collagen amount (ng/μg protein) Mean ± SD (Normal human fibroblasts [1]): 32.9 ± 4.8 ng/μg protein
Protein amount (μg) Mean ± SD (Normal human fibroblasts [1]): 11.2 ± 0.2 µg
Activation index (%) Mean ± SD (Normal human fibroblasts [2]): 116.0 ± 2.9%
